The values below come from PubChem BioAssay AID248 (DTP/NCI, 2004).

This assay has as its system L1210 leukemia ip in BDF1 mice, survival T/C. Briefly: NCI In Vivo Anticancer Drug Screen. Data for tumor model L1210 Leukemia (intraperitoneal) in B6D2F1 (BDF1) mice. The following applies: endpoint: mean survival time, higher = longer survival. Summed up:
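Antitumor effect is assessed in tumor-bearing animals. Survival in the compound arm is compared with a vehicle-dosed control arm and expressed as their quotient.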

Setting [1] is: dose: 100.0 mg/kg/injection, schedule: Q04DX003 (ip), vehicle: saline.
[2] abbreviates: dose: 200.0 mg/kg/injection, schedule: Q04DX003 (ip), vehicle: saline.

“And” between values parts separate entries of the source, which are not always exact repeats. Equal values may be shown once. Inconclusive results and toxic doses are left out.

Take `CC(=O)Nc1ccc2nc3ccc(NC(C)=O)cc3[n+](-c3ccccc3)c2c1`: the T/C is 105 % of control (dose: 0.25 mg/kg/injection, schedule: Q01DX Z (ip), vehicle: methylcellulose (MC)); 121 % of control (dose: 0.5 mg/kg/injection, schedule: Q01DX Z (ip), vehicle: methylcellulose (MC)); 111 % of control (dose: 0.75 mg/kg/injection, schedule: Q01DX009 (ip), vehicle: saline); 89 % of control (dose: 1.25 mg/kg/injection, schedule: Q#A X Z (ip), vehicle: saline); 114 % of control (dose: 1.5 mg/kg/injection, schedule: Q01DX009 (ip), vehicle: saline); 98 % of control (dose: 2.5 mg/kg/injection, schedule: Q01DX Z (ip), vehicle: saline). Moreover, the T/C (dose: 2.5 mg/kg/injection, schedule: Q#A X Z (ip), vehicle: saline) was 109 % of control; the T/C (dose: 3.0 mg/kg/injection, schedule: Q01DX009 (ip), vehicle: saline) is 122 % of control; the T/C (dose: 4.4 mg/kg/injection, schedule: Q07DX Z (ip), vehicle: saline) was 105 % of control; the T/C (dose: 5.0 mg/kg/injection, schedule: Q01DX Z (ip), vehicle: saline) is 118 % of control; the T/C (dose: 5.0 mg/kg/injection, schedule: Q#A X Z (ip), vehicle: saline) was 123 % of control; the T/C (dose: 6.0 mg/kg/injection, schedule: Q01DX009 (ip), vehicle: saline) is 120 % of control. In addition, the T/C is, setting by setting: (dose: 7.5 mg/kg/injection, schedule: Q03DX Z (ip), vehicle: saline) 111 % of control; (dose: 8.8 mg/kg/injection, schedule: Q07DX Z (ip), vehicle: saline) 110 % of control; (dose: 10.0 mg/kg/injection, schedule: Q01DX009 (sc), vehicle: propolene glycol) 97 % of control; (dose: 10.0 mg/kg/injection, schedule: Q01DX015 (ip), vehicle: propolene glycol) 152 % of control; (dose: 12.5 mg/kg/injection, schedule: Q01DX Z (ip), vehicle: methylcellulose (MC)) 150 % of control; (dose: 15.0 mg/kg/injection, schedule: Q03DX Z (ip), vehicle: saline) 118 % of control. In addition, the T/C is, setting by setting: (dose: 17.5 mg/kg/injection, schedule: Q07DX Z (ip), vehicle: saline) 115 % of control; (dose: 20.0 mg/kg/injection, schedule: Q01DX010 (sc), vehicle: propolene glycol) 96 % of control; (dose: 20.0 mg/kg/injection, schedule: Q01DX Z (ip), vehicle: saline) 123 % of control; (dose: 20.0 mg/kg/injection, schedule: Q#A X Z (ip), vehicle: saline) 180 % of control; (dose: 25.0 mg/kg/injection, schedule: Q01DX Z (ip), vehicle: methylcellulose (MC)) 166 % of control; (dose: 31.25 mg/kg/injection, schedule: Q01DX009 (ip), vehicle: saline) 164 % of control. Besides, the T/C by setting is: (dose: 31.3 mg/kg/injection, schedule: Q01DX009 (ip), vehicle: saline) 161 % of control; (dose: 40.0 mg/kg/injection, schedule: Q01DX010 (sc), vehicle: propolene glycol) 102 % of control; (dose: 40.0 mg/kg/injection, schedule: Q01DX015 (ip), vehicle: propolene glycol) 172 % of control; (dose: 40.0 mg/kg/injection, schedule: Q01DX Z (ip), vehicle: saline) 172 % of control; (dose: 50.0 mg/kg/injection, schedule: Q01DX009 (ip), vehicle: saline) 162 % of control; (dose: 50.0 mg/kg/injection, schedule: Q01DX Z (ip), vehicle: methylcellulose (MC)) 100 % of control. Besides, the T/C is, setting by setting: (dose: 64.0 mg/kg/injection, schedule: Q01DX010 (iv), vehicle: saline) 97 % of control; (dose: 80.0 mg/kg/injection, schedule: Q01DX009 (oral), vehicle: propolene glycol) 98 % of control; (dose: 80.0 mg/kg/injection, schedule: Q01DX009 (sc), vehicle: propolene glycol) 95 % of control; (dose: 100.0 mg/kg/injection, schedule: Q01DX009 (ip), vehicle: saline) 206 % of control; (dose: 120.0 mg/kg/injection, schedule: Q01DX009 (oral), vehicle: propolene glycol) 98 % of control; (dose: 120.0 mg/kg/injection, schedule: Q03DX Z (ip), vehicle: saline) 159 % of control. Besides, the T/C is 102 % of control (dose: 128.0 mg/kg/injection, schedule: Q01DX010 (iv), vehicle: saline); 105 % of control (dose: 175.0 mg/kg/injection, schedule: Q01DX001 (ip), vehicle: saline); 116 % of control (dose: 222.0 mg/kg/injection, schedule: Q01DX Z (oral), vehicle: saline); 108 % of control (dose: 256.0 mg/kg/injection, schedule: Q01DX010 (iv), vehicle: saline); 108 % of control (dose: 265.0 mg/kg/injection, schedule: Q01DX001 (ip), vehicle: saline); 98 % of control (dose: 270.0 mg/kg/injection, schedule: Q01DX009 (oral), vehicle: propolene glycol). Also, the T/C (dose: 333.0 mg/kg/injection, schedule: Q01DX Z (oral), vehicle: saline) is 120 % of control; the T/C (dose: 405.0 mg/kg/injection, schedule: Q01DX009 (oral), vehicle: propolene glycol) is 102 % of control; the T/C (dose: 480.0 mg/kg/injection, schedule: Q03DX Z (ip), vehicle: saline) was 112 % of control; the T/C (dose: 960.0 mg/kg/injection, schedule: Q03DX Z (ip), vehicle: saline) is 86 % of control.

Regarding `CCCNC(=O)Oc1ccc(C2CCCCC2)cc1`, the T/C was 100 % of control (dose: 100.0 mg/kg/injection, schedule: Q01DX001 (ip), vehicle: other); 104 % of control and 87 % of control (dose: 100.0 mg/kg/injection, schedule: Q01DX009 (ip), vehicle: other); 110 % of control (dose: 100.0 mg/kg/injection, schedule: Q04DX002 (ip), vehicle: Klucel (hydroxypropylcellulose) (HPC)); 105 % of control and 109 % of control (dose: 100.0 mg/kg/injection, schedule: Q04DX002 (ip), vehicle: other); 100 % of control (dose: 100.0 mg/kg/injection, schedule: Q04DX003 (ip), vehicle: other); 100 % of control (dose: 200.0 mg/kg/injection, schedule: Q01DX001 (ip), vehicle: other). Besides, the T/C by setting is: (dose: 200.0 mg/kg/injection, schedule: Q01DX009 (ip), vehicle: other) 103 % of control and 111 % of control; (dose: 200.0 mg/kg/injection, schedule: Q04DX002 (ip), vehicle: Klucel (hydroxypropylcellulose) (HPC)) 100 % of control; (dose: 200.0 mg/kg/injection, schedule: Q04DX002 (ip), vehicle: other) 95 % of control and 111 % of control; (dose: 200.0 mg/kg/injection, schedule: Q04DX003 (ip), vehicle: other) 102 % of control; (dose: 400.0 mg/kg/injection, schedule: Q01DX001 (ip), vehicle: other) 97 % of control; (dose: 400.0 mg/kg/injection, schedule: Q01DX009 (ip), vehicle: other) 101 % of control and 112 % of control. The T/C is 95 % of control and 107 % of control (dose: 400.0 mg/kg/injection, schedule: Q04DX002 (ip), vehicle: other); 104 % of control (dose: 400.0 mg/kg/injection, schedule: Q04DX003 (ip), vehicle: other).

With `CC(=O)N1CCC(CC(O)Cc2ccnc3ccccc23)CC1` (centres undefined), the T/C under setting [1] was 97 % of control and the T/C under setting [2] is 97 % of control.

Take `Cc1ccc([N+](=O)[O-])cc1N1CCNC1=O`: the T/C runs as follows: (dose: 100.0 mg/kg/injection, schedule: Q01DX009 (ip), vehicle: Klucel (hydroxypropylcellulose) (HPC)) 104 % of control; (dose: 100.0 mg/kg/injection, schedule: Q04DX003 (ip), vehicle: Klucel (hydroxypropylcellulose) (HPC)) 102 % of control; (dose: 200.0 mg/kg/injection, schedule: Q01DX009 (ip), vehicle: Klucel (hydroxypropylcellulose) (HPC)) 102 % of control; (dose: 200.0 mg/kg/injection, schedule: Q04DX003 (ip), vehicle: Klucel (hydroxypropylcellulose) (HPC)) 98 % of control; (dose: 400.0 mg/kg/injection, schedule: Q01DX009 (ip), vehicle: Klucel (hydroxypropylcellulose) (HPC)) 100 % of control; (dose: 400.0 mg/kg/injection, schedule: Q04DX003 (ip), vehicle: Klucel (hydroxypropylcellulose) (HPC)) 101 % of control.

Turning to `CC1(/C=N/Nc2nnc(N/N=C/C3(C)CCC=CO3)c3ccccc23)CCC=CO1` (centres undefined), the T/C by setting is: (dose: 50.0 mg/kg/injection, schedule: Q01DX001 (ip), vehicle: carboxymethylcellulose (CMC)) 106 % of control; (dose: 100.0 mg/kg/injection, schedule: Q01DX001 (ip), vehicle: carboxymethylcellulose (CMC)) 104 % of control; (dose: 200.0 mg/kg/injection, schedule: Q01DX001 (ip), vehicle: carboxymethylcellulose (CMC)) 87 % of control.

In the case of `Cc1nc2c(-c3ccccc3)cc(Cl)cc2s1`, the T/C reads like this: under setting [1], 100 % of control; under setting [2], 101 % of control; (dose: 400.0 mg/kg/injection, schedule: Q04DX003 (ip), vehicle: saline) 95 % of control.
